In patent publication US9956225B2, “Treatment of myelodysplastic syndrome” (Boehringer Ingelheim International GmbH, priority 2013, dated 2018):

How the values were obtained:
[1] = Body weight change in MV4;11 nude mouse xenograft model (side effects); type: in vivo; conditions: 21 days, tumor-bearing nude mice
Experimental: Tumor-bearing mice were treated for 3 weeks intravenously either with vehicle or with 10 mg/kg or 20 mg/kg Volasertib, respectively, once weekly. Median changes in body weight compared to day 1 are plotted over time. Day 1 was the first day, day 21 the last day of the experiment.
(§1) Mice were 8-9 week-old athymic female BomTac: NMRI-Foxn1^nu purchased from Taconic, Denmark. After arrival in the animal facility, mice were allowed to adjust to ambient conditions for at least 3 days before they were used for experiments. They were housed in Macrolon® type II cages in groups of 5 under standardized conditions at 21.5±1.5° C. temperature and 55±10% humidity. Standardized diet (PROVIMI KLIBA) and autoclaved tap water were provided ad libitum.
Volasertib (BI 6727) was dissolved in hydrochloric acid (0.1 N), diluted with 0.9% NaCl and injected intravenously into the tail vein. An administration volume of 10 ml per kg body weight was used. The solution was freshly made up each injection day.
(§2) The tumor diameter was measured three times a week with a caliper. The volume of each tumor [in mm^3] was calculated according to the formula “tumor volume=length*diameter^2*π/6”. To monitor side effects of treatment, mice were inspected daily for abnormalities and body weight was determined three times a week. […]

[2] = system: human AML cell line MV4;11; assay: Nude mouse xenograft model derived from human AML cell line MV4;11: tumor growth; type: in vivo; conditions: 21 days, MV4;11 xenograft in nude mice
Experimental: Tumor-bearing mice were treated for 3 weeks intravenously either with vehicle or once weekly with 10 mg/kg or 20 mg/kg Volasertib (BI 6727), respectively. Median tumor volumes are plotted over time. Day 1 was the first day, day 21 the last day of the experiment. Efficacy results from this xenograft model are considered valid for MDS.
MV4;11 (CRL-9591) cells were obtained from ATCC. According to the Catalogue of Somatic Mutations in Cancer of the Wellcome Trust Sanger Institute, UK, this cell line carries a mutation in the FLT3 gene. Cells were cultured in T175 tissue culture flasks at 37° C. and 5% CO2. The medium used was IMDM supplemented with 10% fetal calf serum, 1% NEAA, 1% sodium pyruvate and 1% glutamine.
as §1, with “Standardized diet (PROVIMI KLIBA) and autoclaved tap water were provided ad libitum.” left out
as §2

CC[C@@H]1C(=O)N(C)c2cnc(Nc3ccc(C(=O)N[C@H]4CC[C@H](N5CCN(CC6CC6)CC5)CC4)cc3OC)nc2N1C(C)C [Volasertib, N-[trans-4-[4-(cyclopropylmethyl)-1-piperazinyl]cyclohexyl]-4-[[(7R)-7-ethyl-5,6,7,8-tetrahydro-5-methyl-8-(1-methylethyl)-6-oxo-2-pteridinyl]amino]-3-methoxy-benzamide]
body weight gain (side effect profile) ([1]; 10 mg/kg once a week i.v.): body weight gain was comparable to vehicle
body weight gain (side effect profile) ([1]; 20 mg/kg once a week i.v.): body weight gain was comparable to vehicle
median T/C (ratio of median tumor volume of treated vs. control tumors) ([2]; 10 mg/kg once a week i.v.): 76%
median T/C (ratio of median tumor volume of treated vs. control tumors) ([2]; 20 mg/kg once a week i.v.): 38%
